Results on 18 molecules are retold here after US11701434B2, “Tertiary amino lipidated cationic peptides for nucleic acid delivery” (Nutcracker Therapeutics, Inc., priority 2018, dated 2023).

Molecules are shown by their SMILES.

Data set [1] is described as follows: mRNA encapsulation by Qubit RNA HS dye fluorescence before and after Triton X-100 lysis. The data set is classed as physicochemical. The following applies: Fluc mRNA/peptoid formulation, 5:1 mass ratio peptoid:cargo. The method, then: (§1) In standard formulations, the tertiary amino lipidated and/or PEGylated cationic peptide compound is dissolved in anhydrous ethanol at a concentration of 0.5 mg/mL (for in vitro experiments) or 5 mg/mL (for in vivo experiments). The resulting solutions are stable at room temperature, but should be stored at −20° C. The nucleic acid cargo is dissolved in DNAse or RNAse-free water at a final concentration of 0.2 mg/mL (for in vitro experiments) or 1 mg/mL (for in vivo experiments). These solutions should be stored at −20° C. or at −78° C. for longer time periods. To prepare nanoparticle formulations, the tertiary amino lipidated and/or PEGylated cationic peptide compound is mixed by pipetting with nucleic acid at a mass ratio between approximately 1:1 (peptide compound:cargo) and 20:1. Prior to formulation, tertiary amino lipidated and/or PEGylated cationic peptide compounds and cargo (such as nucleic acid) are diluted in ethanol and acidic buffer (PBS adjusted to pH 5.5 with 0.1 M HCl) respectively to a volume ratio of 1:3 and to target a final cargo concentration of approximately 0.05 mg/mL to 0.2 mg/mL. The exemplary amino lipidated cationic peptoids 1-36 described in Example 2 were combined with firefly luciferase (Flue) mRNA to form nanoparticle compositions to be evaluated for therapeutic and/or prophylactic purposes in vitro or in vivo. The formulations were prepared according to the protocol of Example 3 and mixed by simple pipetting. The mRNA/peptoid formulation at a 5:1 mass ratio of peptoid:cargo were evaluated by dynamic light scattering (DLS) in order to determine the volume average particle size/diameter (nm) of the mRNA/peptoid complex and the size polydispersity index (PDI) within the formulation. The percentage of mRNA encapsulation for each formulation of the exemplary compounds were determined by fluorescence of the Qubit RNA HS (Invitrogen) dye before and after lysis of particles by Triton X-100.

Data set [2] is described as follows: Dynamic light scattering (DLS) of Fluc mRNA/peptoid formulations: particle size and polydispersity. Format: physicochemical. The following applies: 5:1 mass ratio peptoid:cargo; for Size (volume average particle size/diameter): Fluc mRNA/peptoid complex; for Size PDI (size polydispersity index): Fluc mRNA/peptoid formulation. The method, then:
as §1

Take `CCCCCCCCCCN(CC(N)=O)C(=O)CN(CCc1ccccc1)C(=O)CN(CCc1ccccc1)C(=O)CN(CCN)C(=O)CN(CCc1ccccc1)C(=O)CN(CCc1ccccc1)C(=O)CN(CCN)C(=O)CN(CCc1ccccc1)C(=O)CN(CCc1ccccc1)C(=O)CNCCN` [Compound 6]: the “% Encapsulation (percentage of mRNA encapsulation)” value in data set [1] is recorded as 92.4%. Moreover, in data set [2], the “Size (volume average particle size/diameter)” value turned out to be 448.6 nm and the “Size PDI (size polydispersity index)” value is 0.348.
With `CCCCCCCCCCN(CC(N)=O)C(=O)CN(CCCCCCCCCC)C(=O)CN(CCc1ccccc1)C(=O)CN(CCc1ccccc1)C(=O)CN(CCN)C(=O)CN(CCc1ccccc1)C(=O)CN(CCc1ccccc1)C(=O)CN(CCN)C(=O)CN(CCc1ccccc1)C(=O)CN(CCc1ccccc1)C(=O)CN(CCN)C(=O)CN(CCc1ccccc1)C(=O)CN(CCc1ccccc1)C(=O)CNCCN` [Compound 11], the “% Encapsulation (percentage of mRNA encapsulation)” value in data set [1] was 87.8%. Moreover, in data set [2], the “Size (volume average particle size/diameter)” value came to 354.9 nm and the “Size PDI (size polydispersity index)” value came to 0.038.
As to `CCCCCCCCCCN(CC(N)=O)C(=O)CN(CCCCCCCCCC)C(=O)CN(CCN)C(=O)CN(CCN)C(=O)CN(CCN)C(=O)CN(CCN)C(=O)CNCCN` [Compound 15], the “% Encapsulation (percentage of mRNA encapsulation)” value in data set [1] was 76.9%. Further, in data set [2], the “Size (volume average particle size/diameter)” value was 1064 nm and the “Size PDI (size polydispersity index)” value was determined as 1.
With `CCCCCCCCCCN(CC(N)=O)C(=O)CN(CCCCCCCCCC)C(=O)CN(CCCCCCCCCC)C(=O)CN(CCCCCCCCCC)C(=O)CN(CCCCCCCCCC)C(=O)CN(CCCCCCCCCC)C(=O)CN(CCc1ccccc1)C(=O)CN(CCc1ccccc1)C(=O)CN(CCN)C(=O)CN(CCc1ccccc1)C(=O)CN(CCc1ccccc1)C(=O)CN(CCN)C(=O)CN(CCc1ccccc1)C(=O)CN(CCc1ccccc1)C(=O)CNCCN` [Compound 22], the “% Encapsulation (percentage of mRNA encapsulation)” value in data set [1] stood at 65.4%. Also, in data set [2], the “Size (volume average particle size/diameter)” value amounted to 748.2 nm and the “Size PDI (size polydispersity index)” value is given as 0.538.
Turning to `CCCCCCCCCCN(CC(=O)N(CCN)CC(=O)N(CCc1ccccc1)CC(=O)N(CCc1ccccc1)CC(=O)N(CCCCCCCCCC)CC(=O)N(CCN)CC(=O)N(CCc1ccccc1)CC(=O)N(CCc1ccccc1)CC(N)=O)C(=O)CN(CCc1ccccc1)C(=O)CN(CCc1ccccc1)C(=O)CNCCN` [Compound 17], in data set [1], the “% Encapsulation (percentage of mRNA encapsulation)” value came to 90.3%. Further, in data set [2], the “Size (volume average particle size/diameter)” value is 472.8 nm and the “Size PDI (size polydispersity index)” value worked out at 0.37.
The matching figures for `CCCCCCCCCCN(CC(N)=O)C(=O)CN(CCCCCCCCCC)C(=O)CN(CCc1ccccc1)C(=O)CN(CCc1ccccc1)C(=O)CN(CCN)C(=O)CN(CCc1ccccc1)C(=O)CN(CCc1ccccc1)C(=O)CNCCN` [Compound 10]: 92.6%, 157 nm and 0.009.
On to `CCCCCCCCCCN(CC(N)=O)C(=O)CN(CCCCCCCCCC)C(=O)CN(CCCCCCCCCC)C(=O)CN(CCCCCCCCCC)C(=O)CN(CCc1ccccc1)C(=O)CN(CCc1ccccc1)C(=O)CN(CCNC)C(=O)CN(CCc1ccccc1)C(=O)CN(CCc1ccccc1)C(=O)CN(CCNC)C(=O)CN(CCc1ccccc1)C(=O)CN(CCc1ccccc1)C(=O)CN(CCNC)C(=O)CN(CCc1ccccc1)C(=O)CN(CCc1ccccc1)C(=O)CNCCNC` [Compound 26], for which the “% Encapsulation (percentage of mRNA encapsulation)” value in data set [1] is on record as 35.7%.
With `CCCCCCCCCCN(CC(N)=O)C(=O)CN(CCCCCCCCCC)C(=O)CN(CCc1ccccc1)C(=O)CN(CCN)C(=O)CN(CCc1ccccc1)C(=O)CN(CCN)C(=O)CN(CCc1ccccc1)C(=O)CNCCN` [Compound 13], in data set [1], the “% Encapsulation (percentage of mRNA encapsulation)” value came out at 90.4%. Besides, in data set [2], the “Size (volume average particle size/diameter)” value turned out to be 822.6 nm and the “Size PDI (size polydispersity index)” value came to 0.447.
On to `CCCCCCCCCCN(CC(N)=O)C(=O)CN(CCCCCCCCCC)C(=O)CN(CCCCCCCCCC)C(=O)CN(CCCCCCCCCC)C(=O)CN(CCc1ccccc1)C(=O)CN(CCc1ccccc1)C(=O)CN(CC1CCNCC1)C(=O)CN(CCc1ccccc1)C(=O)CN(CCc1ccccc1)C(=O)CN(CC1CCNCC1)C(=O)CN(CCc1ccccc1)C(=O)CN(CCc1ccccc1)C(=O)CNCC1CCNCC1` [Compound 31], for which, in data set [1], the “% Encapsulation (percentage of mRNA encapsulation)” value is reported as 35.7%. Further, in data set [2], the “Size (volume average particle size/diameter)” value is listed as 348.5 nm and the “Size PDI (size polydispersity index)” value came to 0.404.
The matching figures for `CCCCCCCCCCN(CC(N)=O)C(=O)CN(CCCCCCCCCC)C(=O)CN(CCc1ccccc1)C(=O)CN(CCc1ccccc1)C(=O)CN(CC1CCNCC1)C(=O)CN(CCc1ccccc1)C(=O)CN(CCc1ccccc1)C(=O)CN(CC1CCNCC1)C(=O)CN(CCc1ccccc1)C(=O)CN(CCc1ccccc1)C(=O)CNCC1CCNCC1` [Compound 33]: 82.0%, 435.7 nm and 0.048.
The corresponding values for `CCCCCCCCCCN(CC(N)=O)C(=O)CN(CCCCCCCCCC)C(=O)CN(CCc1ccccc1)C(=O)CN(CCc1ccccc1)C(=O)CN(CC1CCCN1)C(=O)CN(CCc1ccccc1)C(=O)CN(CCc1ccccc1)C(=O)CN(CC1CCCN1)C(=O)CN(CCc1ccccc1)C(=O)CN(CCc1ccccc1)C(=O)CNCC1CCCN1` (centres unmarked) [Compound 36] are 71.5%, 374.4 nm and 0.127.
`CCCCCCCCCCNCC(=O)N(CCN)CC(=O)N(CCc1ccccc1)CC(=O)N(CCc1ccccc1)CC(=O)N(CCN)CC(=O)N(CCc1ccccc1)CC(=O)N(CCc1ccccc1)CC(=O)N(CCN)CC(=O)N(CCc1ccccc1)CC(=O)N(CCc1ccccc1)CC(=O)N(CCCCCCCCCC)CC(N)=O` [Compound 18]: the “% Encapsulation (percentage of mRNA encapsulation)” value in data set [1] turned out to be 88.5%. Also, in data set [2], the “Size (volume average particle size/diameter)” value amounted to 593 nm and the “Size PDI (size polydispersity index)” value is given as 0.762.
Regarding `CCCCCCCCCCN(CC(N)=O)C(=O)CN(CCCCCCCCCC)C(=O)CN(CCc1ccccc1)C(=O)CN(CCc1ccccc1)C(=O)CNCCN` [Compound 9], the “% Encapsulation (percentage of mRNA encapsulation)” value in data set [1] amounted to 73.9%. Moreover, in data set [2], the “Size (volume average particle size/diameter)” value stood at 367.9 nm and the “Size PDI (size polydispersity index)” value is reported as 0.122.
The corresponding values for `CCCCCCCCCCN(CC(N)=O)C(=O)CN(CCCCCCCCCC)C(=O)CN(CCN)C(=O)CN(CCN)C(=O)CNCCN` [Compound 14] are 77.3%, 554 nm and 0.233.
Regarding `CCCCCCCCCCN(CC(N)=O)C(=O)CN(CCCCCCCCCC)C(=O)CN(CCCCCCCCCC)C(=O)CN(CCCCCCCCCC)C(=O)CN(CCc1ccccc1)C(=O)CN(CCc1ccccc1)C(=O)CN(CCCN)C(=O)CN(CCc1ccccc1)C(=O)CN(CCc1ccccc1)C(=O)CN(CCCN)C(=O)CN(CCc1ccccc1)C(=O)CN(CCc1ccccc1)C(=O)CNCCCN` [Compound 28], the “% Encapsulation (percentage of mRNA encapsulation)” value in data set [1] came out at 52.0%. For the same molecule, in data set [2], the “Size (volume average particle size/diameter)” value turned out to be 308 nm and the “Size PDI (size polydispersity index)” value worked out at 0.085.
As for `CCCCCCCCCCN(CC(N)=O)C(=O)CN(CCCCCCCCCC)C(=O)CN(CCCCCCCCCC)C(=O)CN(CCCCCCCCCC)C(=O)CN(CCc1ccccc1)C(=O)CN(CCc1ccccc1)C(=O)CN(CC1CCNCC1)C(=O)CN(CCc1ccccc1)C(=O)CN(CCc1ccccc1)C(=O)CN(CC1CCNCC1)C(=O)CN(CCc1ccccc1)C(=O)CN(CCc1ccccc1)C(=O)CN(CC1CCNCC1)C(=O)CN(CCc1ccccc1)C(=O)CN(CCc1ccccc1)C(=O)CNCC1CCNCC1` [Compound 32], the “% Encapsulation (percentage of mRNA encapsulation)” value in data set [1] came out at 50.9%. For the same molecule, in data set [2], the “Size (volume average particle size/diameter)” value was 247.5 nm and the “Size PDI (size polydispersity index)” value is 0.274.
The corresponding values for `CCCCCCCCCCN(CC(N)=O)C(=O)CN(CCCCCCCCCC)C(=O)CN(CCc1ccccc1)C(=O)CN(CCc1ccccc1)C(=O)CN(CCNC)C(=O)CN(CCc1ccccc1)C(=O)CN(CCc1ccccc1)C(=O)CN(CCNC)C(=O)CN(CCc1ccccc1)C(=O)CN(CCc1ccccc1)C(=O)CNCCNC` [Compound 27] are 50.9%, 438.7 nm and 0.606.
On to `CCCCCCCCCCN(CC(N)=O)C(=O)CN(CCCCCCCCCC)C(=O)CN(CCCCCCCCCC)C(=O)CN(CCCCCCCCCC)C(=O)CN(CCCCCCCCCC)C(=O)CN(CCCCCCCCCC)C(=O)CN(CCCCCCCCCC)C(=O)CN(CCc1ccccc1)C(=O)CN(CCc1ccccc1)C(=O)CN(CCN)C(=O)CN(CCc1ccccc1)C(=O)CN(CCc1ccccc1)C(=O)CN(CCN)C(=O)CN(CCc1ccccc1)C(=O)CN(CCc1ccccc1)C(=O)CNCCN` [Compound 23], for which the “% Encapsulation (percentage of mRNA encapsulation)” value in data set [1] turned out to be 3.9%.
